Assay results from US20260041744A1, “Methods for Treating Pompe Disease” (Amicus Therapeutics, Inc., priority 2022, published 2026).
Entries after “also recorded” stand apart in the source; their conditions may differ.

What was measured:
[1] = system: adults with Pompe disease; assay: Study ATB200-02: urine Hex4; conditions: for patients whose urine Hex4 decreased numerically from baseline (n/N): ERT-naïve; for Urinary Hex4, % CFBL mean: Non-ambulatory ERT-experienced;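 for all read-outs here: Hex4 is the urine glucose tetrasaccharide biomarker, measured at regular intervals during study follow-up and compared with each patient's baseline value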
Protocol: The change from baseline (CFBL) in 6MWD, % predicted sitting FVC, manual muscle test (MMT) and biomarkers—urine glucose tetrasaccharide (Hex4) and serum creatine kinase (CK)—were assessed at regular intervals.

[2] = system: adults with Pompe disease; assay: Study ATB200-02: sitting % predicted FVC; conditions: for FVC change from baseline, mean: Cohort 2 (non-ambulatory ERT-experienced)
Protocol: Four cohorts of patients with Pompe disease were enrolled in the ATB200-02 study: • Cohort 1: ERT-experienced, aged 18-65 years, with 2-6 years prior ERT with 20 mg/kg alglucosidase alfa every 2 weeks (n=11) • Cohort 2: Non-ambulatory ERT-experienced, aged 18-65 years, with ≥2 years prior ERT with 20 mg/kg alglucosidase alfa every 2 weeks (n=6)· • Cohort 3: ERT-naïve, aged 18-65 years (n=6). • Cohort 4: ERT-experienced, aged 18-75 years, with ≥7 years prior ERT with 20 mg/kg alglucosidase alfa every 2 weeks (n=6)
The change from baseline (CFBL) in 6MWD, % predicted sitting FVC, manual muscle test (MMT) and biomarkers—urine glucose tetrasaccharide (Hex4) and serum creatine kinase (CK)—were assessed at regular intervals. Data with up to 36 months of follow-up in ERT-experienced and ERT-naïve patients is provided herein. […] Due to the staggered timing of patient enrollment, the number of patients with data currently available decreases at later time-points in this ongoing study.

[3] = system: adult subjects with Pompe disease; assay: Pooled Studies ATB200-02/03/07: GSGC total score by exposure interval
Protocol: The pooled efficacy analyses presented within this section include the outlier (Pool 2). […] Pooled efficacy analyses excluding the outlier subject (Pool 2A) were also performed.
Note that a negative score indicates an improvement.

[4] = system: adult subjects with Pompe disease; assay: Pooled Studies ATB200-02/03/07: MMT lower extremity score by exposure interval
[5] = Cohort 1 + Cohort 3 + Cohort 4, Month 12
[6] = Cohort 1 + Cohort 3 + Cohort 4, Month 24
[7] = Cohort 1 + Cohort 3 + Cohort 4, Month 36
[8] = Cohort 1 + Cohort 3 + Cohort 4, Month 48

ATB200/miglustat: two-component therapy: cipaglucosidase alfa (ATB200) administered in conjunction with miglustat (AT2221), a stabilizer of cipaglucosidase alfa
patients whose urine Hex4 decreased numerically from baseline (n/N) ([1]; 24 months): 5/6
patients whose urine Hex4 decreased numerically from baseline (n/N) ([1]; 36 months): 4/5
patients whose urine Hex4 decreased numerically from baseline (n/N) ([1]; 48 months): 4/5
Urinary Hex4, % CFBL mean ([1]; 12 months): −15.6%
Urinary Hex4, % CFBL mean ([1]; 24 months): −34.1%
Urinary Hex4, % CFBL mean ([1]; 36 months): −36.5%
Urinary Hex4, % CFBL mean ([1]; 48 months): −9.4 ) %
Percent predicted sitting FVC, CFBL mean ([2]; Ambulatory ERT-experienced, 12 months): −1.2
Percent predicted sitting FVC, CFBL mean ([2]; Ambulatory ERT-experienced, 24 months): 1.0
Percent predicted sitting FVC, CFBL mean ([2]; Ambulatory ERT-experienced, 36 months): −0.3
Percent predicted sitting FVC, CFBL mean ([2]; Ambulatory ERT-experienced, 48 months): 1.0
Percent predicted sitting FVC, CFBL mean ([2]; Ambulatory ERT-naïve, 12 months): 3.2
Percent predicted sitting FVC, CFBL mean ([2]; Ambulatory ERT-naïve, 24 months): 4.7
Percent predicted sitting FVC, CFBL mean ([2]; Ambulatory ERT-naïve, 36 months): 6.2
Percent predicted sitting FVC, CFBL mean ([2]; Ambulatory ERT-naïve, 48 months): 8.3
sitting % predicted FVC change from baseline, mean [2, 5]: 0.0%
sitting % predicted FVC change from baseline, median [2, 5]: −0.5%
sitting % predicted FVC change from baseline, mean [2, 6]: 2.2%
sitting % predicted FVC change from baseline, median [2, 6]: 2.0%
sitting % predicted FVC change from baseline, mean [2, 7]: 1.9%
sitting % predicted FVC change from baseline, median [2, 7]: 2.0%
sitting % predicted FVC change from baseline, mean [2, 8]: 3.9%
sitting % predicted FVC change from baseline, median [2, 8]: 4.5%
sitting % predicted FVC change from baseline, mean ([2]; Cohort 1 + Cohort 4 (ERT-experienced), Month 12, listed as cipaglucosidase alfa/miglustat): −1.2%
sitting % predicted FVC change from baseline, mean ([2]; Cohort 1 + Cohort 4 (ERT-experienced), Month 36): −0.3%
sitting % predicted FVC change from baseline, median ([2]; Cohort 1 + Cohort 4, Month 12): −1.0%
sitting % predicted FVC change from baseline, median ([2]; Cohort 1 + Cohort 4, Month 24): 1.0%
sitting % predicted FVC change from baseline, median ([2]; Cohort 1 + Cohort 4, Month 36): −1.5%
sitting % predicted FVC change from baseline, median ([2]; Cohort 1 + Cohort 4, Month 48): 3.5%
FVC change from baseline, mean ([2]; month 12): +2.5%
FVC change from baseline, mean ([2]; month 24): +2.0%
FVC change from baseline, mean ([2]; month 36): −2.0%
FVC change from baseline, mean ([2]; month 48): −1.0%
sitting % predicted FVC change from baseline, mean ([2]; Cohort 3 (ERT-naïve), Month 12): 3.2%
sitting % predicted FVC change from baseline, mean ([2]; Cohort 3 (ERT-naïve), Month 24): 4.7%
sitting % predicted FVC change from baseline, mean ([2]; Cohort 3 (ERT-naïve), Month 36): 6.2%
sitting % predicted FVC change from baseline, mean ([2]; Cohort 3 (ERT-naïve), Month 48): 8.3%
sitting % predicted FVC change from baseline, median ([2]; Cohort 3, Month 12): 4.5%
sitting % predicted FVC change from baseline, median ([2]; Cohort 3, Month 24): 4.0%
sitting % predicted FVC change from baseline, median ([2]; Cohort 3, Month 36): 5.0%
sitting % predicted FVC change from baseline, median ([2]; Cohort 3, Month 48): 9.5%
patients whose FVC improved (>3%) or remained stable (±3%) from baseline (n/N) ([2]; ERT-experienced, 12 months): 9/16
patients whose FVC improved (>3%) or remained stable (±3%) from baseline (n/N) ([2]; ERT-experienced, 24 months): 11/13
patients whose FVC improved (>3%) or remained stable (±3%) from baseline (n/N) ([2]; ERT-experienced, 36 months): 8/10
patients whose FVC improved (>3%) or remained stable (±3%) from baseline (n/N) ([2]; ERT-experienced, 48 months): 4/6
patients with improvement (CFBL >3% points) in % predicted sitting FVC ([2]; ERT-experienced, Month 48): 66.7%
patients whose FVC improved (>3%) or remained stable (±3%) from baseline (n/N) ([2]; ERT-naïve, 12 months): 5/6
patients whose FVC improved (>3%) or remained stable (±3%) from baseline (n/N) ([2]; ERT-naïve, 24 months): 6/6
patients whose FVC improved (>3%) or remained stable (±3%) from baseline (n/N) ([2]; ERT-naïve, 36 months): 5/5
patients whose FVC improved (>3%) or remained stable (±3%) from baseline (n/N) ([2]; ERT-naïve, 48 months): 4/4
patients with improvement (CFBL >3% points) in % predicted sitting FVC ([2]; ERT-naïve, Month 48): 75%
Percent predicted sitting FVC, CFBL mean ([2]; Non-ambulatory ERT-experienced, 12 months): 2.5
Percent predicted sitting FVC, CFBL mean ([2]; Non-ambulatory ERT-experienced, 24 months): 2.0
Percent predicted sitting FVC, CFBL mean ([2]; Non-ambulatory ERT-experienced, 36 months): −2.0
Percent predicted sitting FVC, CFBL mean ([2]; Non-ambulatory ERT-experienced, 48 months): −1.0
% predicted FVC outcome (words; cohort in the words) ([2]; up to 48 months, listed as cipaglucosidase alfa/miglustat): stable or improved % predicted FVC for ERT-experienced subjects (Cohorts 1 and 4), ERT-naïve subjects (Cohort 3), and overall (Cohorts 1, 3, and 4); also recorded: For Cohort 2 (non-ambulatory subjects), sitting % predicted FVC was stable in 2 subjects with available data out to 36 months
mean (SD) change from baseline in GSGC total score ([3]; exposure >15 to ≤24 months (n=87)): -0.86 (3.086)
mean (SD) change from baseline in GSGC total score ([3]; exposure >24 months (n=56)): −1.12 (3.586)
mean (SD) change from baseline in GSGC total score ([3]; exposure ≤15 months (n=123), negative = improvement): -0.51 (2.947)
mean (SD) change from baseline in MMT lower extremity score ([4]; exposure >15 to ≤24 months (n=101)): 1.73 (3.675)
mean (SD) change from baseline in MMT lower extremity score ([4]; exposure >24 months (n=65)): 1.98 (4.527)
mean (SD) change from baseline in MMT lower extremity score ([4]; exposure ≤15 months (n=135)): 1.36 (3.807)
